From paper PMC5940854, “Nitrothiophene carboxamides, a novel narrow spectrum antibacterial series: Mechanism of action and Efficacy” (Scientific Reports, 2018)
≈ marks a conversion by molar mass, not a printed value. Read-outs that look alike come from different tables or passages of the source.

Columns and labels:
E. coli ∆acrB JW0451-2 = experiment: MIC, E. coli ∆acrB; format: cell-based; conditions: for MIC: Escherichia coli, read-out: MIC acrB; for MIC acrB: E. coli ∆acrB
Method: (§1) The inoculum used for all the experiments is derived from a single seed lot that is maintained as glycerol stocks at −80 °C and are sub cultured on LB plate for isolated colonies. Single colony of each strain is grown in M9 medium. All test compound stocks and dilutions are prepared in DMSO. Serial two-fold dilutions of compounds are prepared separately, with the concentrations ranging from 2 mg/mL to 0.015 mg/mL. To 150 µl (3–7 × 10^5 CFU/ml) of bacterial culture in 96 well microtitre plates, 3 μL compound from each of the dilutions is added to respective wells to obtain final concentrations ranging from 40 µg/mL to 0.3 µg/mL of the test compounds. Media control, culture control and appropriate reference drug controls are included. […] Growth is monitored by checking absorbance at 600 nm (A600). […] The samples from MIC and above concentrations are plated for MBC (Minimum Bactericidal Concentration). The samples are diluted 1:10 and plated on LB agar plates. […] The killing kinetics is determined by enumerating survivors at various time points following compound exposure. E. coli cells (~10^7 CFU/ml; A600 of 0.1) are treated with various concentrations (40 µg/mL to 0.3 µg/mL) of compounds in a 96-well microtitre plate. At various time intervals (0 to 8 h), 30 μl volumes of treated cultures are serially diluted and plated on LB agar plates. […] Data is expressed as the log10 CFU for each drug treatment.

[1] = test system: wild-type E. coli CGSC#7636 (BW25113); experiment: MIC, wild-type E. coli; format: cell-based; conditions: for MIC: Escherichia coli; for MIC WT: E. coli WT BW25113
Method: as §1

E. coli ∆tolC JW5503-1 = experiment: MIC, E. coli ∆tolC; format: cell-based; conditions: for MIC: Escherichia coli, read-out: MIC tolC; for MIC tolC: E. coli ∆tolC
Method: as §1

E. coli ∆nfsA + ∆nfsB = experiment: microbe, parasite or virus in culture; format: cell-based
Method: (§2) To assess the biological relevance of the interacting protein and establish the link between nitroreductases to the antibacterial activity of NTC compounds, single (ΔnfsA or ΔnfsB) and double knockouts (ΔnfsA & ΔnfsB) of nitroreductases were generated by phage transduction using strains from the Keio collection.
as §1

E. coli ∆nfsA = experiment: microbe, parasite or virus in culture; format: cell-based; conditions: Escherichia coli, read-out: MIC ∆nfsA
Method: as §2, §1

NfsB = target: T1, NfsB (Escherichia coli, UniProt P38489); experiment: Nitroreductase activity assay, NfsB; format: biochemical, E. coli
T1 construct: His-tag; made in house; host or cells: E. coli BL21(DE3), pET28a (pET-nfsB)
Method: (§3) Enzyme reducing each of the substrates are measured by monitoring the concomitant oxidation of NADPH by NfsA and NADH by NfsB in a fluorescence based assay. The reduction in fluorescence due to the NADH oxidation (excitation 350 nm, emission 460 nm) and NADPH oxidation (excitation 340 nm, emission 485 nm) is recorded using a TECAN Infinite M200Pro spectrophotometer, in half area solid black microtiter plates. This change in fluorescence directly corelates to the reduction of the nitro-compounds in the reaction. The NfsA assays is performed by initiating the reactions with 40 μM NADPH and 10 nM NfsA in 50 mM Tris-HCl (pH 7.4), 5 mM EDTA against 20 μM substrate (5 μl of compounds/substrate dissolved in 100% DMSO) in a total reaction volume of 100 μl at 25 °C. Similarly, the NfsB assay is also performed by initiating the reactions with 40 μM NADH and 70 nM NfsB in 50 mM Tris-HCl (pH 7.4), 5 mM EDTA against 20 μM substrate in a total reaction volume of 100 μl. […] All reactions are performed in replicates of two or more and the fluorescence measurements are made at 10 second intervals for 5–10 minutes.
(§4) Low solubility of the compounds/substrates under the NfsA and NfsB assay conditions precluded determination of their Km. […] The relative fluorescence units (RFU) obtained due to NADPH (excitation 340 nm, emission 485 nm) or NADH (excitation 350 nm, emission 460 nm) oxidation of the first 90 sec reaction is used to compute the slopes using linear regression analysis on GraphPad Prism. Appropriate blank reactions are included to account for background fluorescence/quenching from each of the components such as DMSO, the compound itself and auto-oxidation of NADPH or NADH. Activity of NfsB with a known substrate such as nitrofurantoin is used as a benchmark to plot the relative activities with all the test compounds.

NfsA = target: T2, NfsA (Escherichia coli, UniProt P17117); experiment: Nitroreductase activity assay, NfsA; format: biochemical, E. coli
T2 construct: His-tag; made in house; host or cells: E. coli BL21(DE3), pET28a (pET-nfsA)
Method: as §3, §4

E. coli ∆nfsB = experiment: microbe, parasite or virus in culture; format: cell-based; conditions: Escherichia coli, read-out: MIC ∆nfsB
Method: as §2, §1
The wild-type E. coli strain BW25113 and the entire Keio collection of knockouts[22] is maintained as glycerol stocks at −80 °C in 96-well deep well blocks. […] These are sub cultured in 150 µl of LB broth (Kanamycin 50 ug/ml, except for the wild-type strain) in 96 well microtiter plates and then adapted into M9 medium with 0.4% glucose. […] Cultures of single gene knockouts that show an altered MIC as compared to that of the wild type are scored as ‘Hits’.

[2] = BW25113, E. coli WT BW25113, read-out: MIC WT

T1 sequence (P38489 whole entry): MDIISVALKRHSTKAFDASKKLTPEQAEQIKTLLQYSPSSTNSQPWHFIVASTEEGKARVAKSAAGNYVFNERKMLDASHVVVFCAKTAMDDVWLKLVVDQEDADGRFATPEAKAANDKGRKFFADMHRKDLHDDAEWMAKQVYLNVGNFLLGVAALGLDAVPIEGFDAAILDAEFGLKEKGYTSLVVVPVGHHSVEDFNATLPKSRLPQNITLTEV
T2 sequence (P17117 whole entry): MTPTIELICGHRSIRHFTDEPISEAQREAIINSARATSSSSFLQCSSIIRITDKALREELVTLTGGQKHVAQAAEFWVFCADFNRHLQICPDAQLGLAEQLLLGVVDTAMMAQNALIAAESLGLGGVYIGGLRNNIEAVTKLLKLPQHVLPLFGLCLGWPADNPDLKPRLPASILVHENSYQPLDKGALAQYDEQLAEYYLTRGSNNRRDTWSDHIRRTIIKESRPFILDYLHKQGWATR

## Cc1sc(NC(=O)c2ccc([N+](=O)[O-])s2)nc1-c1ccc(F)cc1 [compound 9, N-(4-(4-Fluorophenyl)-5-methylthiazol-2-yl)-5-nitrothiophene-2-carboxamide]
E. coli ∆acrB JW0451-2
  MIC: 0.6 µg/mL (≈ 1.65 µM)
[1]; [2]
  MIC: > 40 µg/mL
E. coli ∆tolC JW5503-1
  MIC: 0.6 µg/mL (≈ 1.65 µM)

## 5-Nitro-N-(4-(6-(trifluoromethyl)pyridin-3-yl)thiazol-2-yl)thiophene-2-carboxamide [compound 17]
E. coli ∆acrB JW0451-2
  MIC acrB: 10 µg/mL
[1]
  MIC WT: > 40 µg/mL
E. coli ∆tolC JW5503-1
  MIC tolC: 10 µg/mL

## CCOc1cc(-c2csc(NC(=O)c3ccc([N+](=O)[O-])s3)n2)ccc1Cl [compound 22, N-(4-(4-chloro-3-ethoxyphenyl)thiazol-2-yl)-5-nitrothiophene-2-carboxamide]
E. coli ∆acrB JW0451-2
  MIC: 1.25 µg/mL (≈ 3.05 µM)
[1]; BW25113, read-out: MIC WT
  MIC: 1.25 µg/mL (≈ 3.05 µM)
E. coli ∆tolC JW5503-1
  MIC: 0.6 µg/mL (≈ 1.46 µM)

## O=C(Nc1nc(-c2ccc(Cl)c(F)c2)cs1)c1ccc([N+](=O)[O-])s1 [compound 21, N-(4-(4-Chloro-3-fluorophenyl)thiazol-2-yl)-5-nitrothiophene-2-carboxamide]
E. coli ∆acrB JW0451-2
  MIC: 1.25 µg/mL (≈ 3.26 µM)
[1]; BW25113, read-out: MIC WT
  MIC: 1.25 µg/mL (≈ 3.26 µM)
E. coli ∆tolC JW5503-1
  MIC: 2.5 µg/mL (≈ 6.51 µM)

## O=C(Nc1nc(-c2ccc(OC(F)(F)F)cc2)cs1)c1ccc([N+](=O)[O-])s1 [compound 16, 5-Nitro-N-(4-(4-(trifluoromethoxy)phenyl)thiazol-2-yl)thiophene-2-carboxamide]
E. coli ∆acrB JW0451-2
  MIC: 1.25 µg/mL (≈ 3.01 µM)
[1]; [2]
  MIC: 5 µg/mL (≈ 12 µM)
E. coli ∆tolC JW5503-1
  MIC: 0.3 µg/mL (≈ 0.722 µM)

## CN(C)Cc1sc(NC(=O)c2ccc([N+](=O)[O-])s2)nc1-c1ccc(F)cc1 [compound 10, N-(5-((dimethylamino)methyl)-4-(4-fluorophenyl)thiazol-2-yl)-5-nitro thiophene-2-carboxamide]
E. coli ∆acrB JW0451-2
  MIC: 2.5 µg/mL (≈ 6.15 µM)
[1]; [2]
  MIC: > 40 µg/mL
E. coli ∆tolC JW5503-1
  MIC: 2.5 µg/mL (≈ 6.15 µM)
E. coli ∆tolC JW5503-1; compared to 9
  fold change of MIC in ∆tolC: four fold

## O=C(Nc1nc(-c2ccc(F)c(F)c2)cs1)c1ccc([N+](=O)[O-])s1 [compound 11, N-(4-(3,4-Difluorophenyl)thiazol-2-yl)-5-nitrothiophene-2-carboxamide]
E. coli ∆acrB JW0451-2
  MIC: 0.3 µg/mL (≈ 0.817 µM)
[1]; [2]
  MIC: 0.6 µg/mL (≈ 1.63 µM)
E. coli ∆tolC JW5503-1
  MIC: 0.15 µg/mL (≈ 0.408 µM)

## Cc1cc(F)ccc1-c1csc(NC(=O)c2ccc([N+](=O)[O-])s2)n1 [compound 18, N-(4-(4-fluoro-2-methylphenyl)thiazol-2-yl)-5-nitrothiophene-2-carboxamide]
E. coli ∆acrB JW0451-2
  MIC: 0.6 µg/mL (≈ 1.65 µM)
[1]; [2]
  MIC: 2.5 µg/mL (≈ 6.88 µM)
E. coli ∆tolC JW5503-1
  MIC: 0.3 µg/mL (≈ 0.826 µM)

## O=C(Nc1nc(-c2cc(F)cc(F)c2)cs1)c1ccc([N+](=O)[O-])s1 [compound 24, N-(4-(3,5-difluorophenyl)thiazol-2-yl)-5-nitrothiophene-2-carboxamide]
E. coli ∆acrB JW0451-2
  MIC: 0.3 µg/mL (≈ 0.817 µM)
[1]; [2]
  MIC: > 20 µg/mL
E. coli ∆tolC JW5503-1
  MIC: 0.3 µg/mL (≈ 0.817 µM)

## COc1cc(-c2csc(NC(=O)c3ccc([N+](=O)[O-])s3)n2)ccc1F [compound 19, N-(4-(4-fluoro-3-methoxyphenyl)thiazol-2-yl)-5-nitrothiophene-2-carboxamide]
E. coli ∆acrB JW0451-2
  MIC: 0.3 µg/mL (≈ 0.791 µM)
[1]; [2]
  MIC: 1.25 µg/mL (≈ 3.29 µM)
E. coli ∆tolC JW5503-1
  MIC: 0.6 µg/mL (≈ 1.58 µM)

## N#Cc1ccc(-c2csc(NC(=O)c3ccc([N+](=O)[O-])s3)n2)cc1 [compound 14, N-(4-(4-cyanophenyl)thiazol-2-yl)-5-nitrothiophene-2-carboxamide]
E. coli ∆nfsA + ∆nfsB; Escherichia coli, read-out: MIC ∆nfsA + ∆nfsB
  MIC: > 40 µg/mL
E. coli ∆nfsA + ∆nfsB; ΔnfsA and ΔnfsB double knockout strain
  antibacterial activity in double knockout (in words): inactive
E. coli ∆nfsA
  MIC: > 40 µg/mL
E. coli ∆acrB JW0451-2
  MIC: 20 µg/mL (≈ 56.1 µM)
NfsB; 20 μM compound, 40 μM NADH, 70 nM NfsB, slope of initial velocity
  NfsB activity (rate of compound conversion): 1.31 µM/min
NfsB; biochemical assay
  conversion by NfsB (in words): not converted
NfsA; 20 μM compound, 40 μM NADPH, 10 nM NfsA, slope of initial velocity
  NfsA activity (rate of compound conversion): 0.20 µM/min
NfsA; biochemical assay
  conversion by NfsA (in words): not converted
[1]
  MIC WT: >40 µg/mL
[1]; [2]
  MIC: > 40 µg/mL
E. coli ∆tolC JW5503-1
  MIC: 20 µg/mL (≈ 56.1 µM)
E. coli ∆tolC JW5503-1; compared to compound 12
  fold loss in MIC against ∆tolC: > 100 fold
E. coli ∆nfsB
  MIC: > 40 µg/mL

## COc1cc(-c2csc(NC(=O)c3ccc([N+](=O)[O-])s3)n2)ccc1C(F)(F)F [compound 23, N-(4-(3-methoxy-4-(trifluoromethyl)phenyl)thiazol-2-yl)-5-nitrothiophene-2-carboxamide]
E. coli ∆acrB JW0451-2
  MIC: 2.5 µg/mL (≈ 5.82 µM)
[1]; [2]
  MIC: 2.5 µg/mL (≈ 5.82 µM)
E. coli ∆tolC JW5503-1
  MIC: 1.25 µg/mL (≈ 2.91 µM)

## Cc1sc(NC(=O)c2ccc(C(F)(F)F)s2)nc1-c1ccccc1 [compound 8, N-(5-Methyl-4-phenylthiazol-2-yl)-5-(trifluoromethyl) thiophene-2-carboxamide]
E. coli ∆acrB JW0451-2
  MIC: > 40 µg/mL
[1]; [2]
  MIC: > 40 µg/mL
E. coli ∆tolC JW5503-1
  MIC: > 40 µg/mL

## N-(4-(3-Fluoro-4-methylphenyl)thiazol-2-yl)-5-nitrothiophene-2-carboxamide [compound 13]
E. coli ∆acrB JW0451-2
  MIC acrB: 0.3 µg/mL
[1]
  MIC WT: 1.25 µg/mL
E. coli ∆tolC JW5503-1
  MIC tolC: 0.3 µg/mL
